Legend:
Assay type in all cases: cell-based, human
MCF-7 breast tumor cells = experiment: Viability of breast tumor cells after siRNA transfection (trypan blue count); parameters: dose or concentration left out as unconfirmed; details: DharmaFECT, 96 hours, vs control siRNA
Experimental: Each of the five siRNA duplexes presented in Table 2 were introduced into cultures of breast tumor cells at a concentration of 50 nM. Briefly, fifty to one hundred thousand tumor cells were added to each well of a 6 well plate and allowed to attach to the surface and grow for 18 hours in DMEM medium containing 10% fetal bovine serum. […] Cells were incubated with the siRNA for 96 hours. The viability of the breast tumor cells was assessed by counting cells with a hemocytometer following trypan blue exclusion. Each of the five sequences reduced the number of viable cells at least 40% (compared to control siRNA-treated cells) in at least one ovarian tumor cell line.

ES-2 cells = experiment: Concentration-dependent effect of siRNA on cell survival (IC50); details: cell viability 96 hours after adding siRNA, FIG. 6A, read-out: IC50 (concentration of siRNA that inhibited growth by 50%)
Experimental: (§1) FIG. 6A and FIG. 6B show concentration-dependent effects of siRNA against the EVI1 gene on cell survival. Ovarian tumor cells ES-2 and TOV-112D were seeded into each well of a 12 well plate. Increasing concentrations of siRNA were introduced into the cells using 1 microliter of Dharmafect reagent in 2 ml of medium. The number of viable cells was determined using trypan blue staining and counting in a hemacytometer.
(§2) For a substance to be an effective cancer therapeutic agent, it needs a robust cancer killing effect at very low concentrations, which for siRNA will be understood to be at subnanomolar concentrations in cell culture. The concentration of siRNA that inhibited growth of ovarian tumor cells by 50% (IC50) was determined by measuring cell viability 96 hours after adding one of various dose levels of siRNA to identical numbers of tumor cells in culture. […] For TOV-112D cells, the IC50 of siEVI1-979 (SEQ ID NOs 9-10) is ˜4 nM, and the IC50 of siEVI1-2910 (SEQ ID NOs 13-14) is ˜0.8 nM. To further identify potent sequences that inhibit the growth of ovarian tumor cells, sequences of up to 10 bp upstream and 10 bp downstream of siEVI1-2910 (SEQ ID NOs: 121-160) were prepared and administered to ES-2 and TOV-112D ovarian tumor cells at a concentration of 2.5 nM using DharmaFECT transfection reagent. FIG. 7A depicts the results of percent growth inhibition of TOV-112D ovarian tumor cells relative to a transfection control. […] FIG. 7B depicts the results of percent growth inhibition of ES-2 ovarian tumor cells relative to a transfection control.

TOV-112D cells = experiment: as above; details: cell viability 96 hours after adding siRNA, FIG. 6B, read-out: IC50 (concentration of siRNA that inhibited growth by 50%)
Experimental: as §1, §2

Hs832.Tc cells = experiment: Viability of ovarian cells after siRNA transfection (trypan blue count); details: 50 nM siRNA, DharmaFECT, 96 hours, vs control siRNA
Experimental: (§3) Each of the five siRNA duplexes presented in Table 2 were introduced into cultures of ovarian tumor cells at a concentration of 50 nM. Briefly, fifty to one hundred thousand tumor cells were added to each well of a 6 well plate and allowed to attach to the surface and grow for 18 hours in DMEM medium containing 10% fetal bovine serum. A total of 100 pmol of each siRNA was introduced into cells using 1 microliter DharmaFECT (Thermo Scientific) reagent in 2 ml total volume of media. Cells were incubated with the siRNA for 96 hours. The viability of the ovarian tumor cells was assessed by counting cells with a hemocytometer following trypan blue exclusion staining. Each of the five sequences reduced the number of viable cells at least 40% (compared to control siRNA-treated cells) in at least one ovarian tumor cell line.

[1] = test system: LNCaP prostate tumor cells; experiment: Viability of prostate tumor cells after siRNA transfection (trypan blue count); details: 50 nM siRNA, DharmaFECT, 96 hours, vs control siRNA
Experimental: as §3, with “prostate” for “ovarian”, “[…]” for “100 pmol”, “DharmaFECT” for “DharmaFECT (Thermo Scientific)”

PC3 prostate tumor cells = experiment: as above; details: 50 nM siRNA, DharmaFECT, 96 hours, vs control siRNA
Experimental: as §3, with “prostate” for “ovarian”, “[…]” for “100 pmol”, “DharmaFECT” for “DharmaFECT (Thermo Scientific)”

[2] = test system: MDA-MB-231 breast tumor cells; experiment: Viability of breast tumor cells after siRNA transfection (trypan blue count); parameters: dose or concentration left out as unconfirmed; details: DharmaFECT, 96 hours, vs control siRNA
ES-2 ovarian tumor cells = experiment: Viability of ovarian tumor cells after siRNA transfection (trypan blue count); details: 50 nM siRNA, DharmaFECT, 96 hours, vs control siRNA
Experimental: as §3

PA-1 ovarian tumor cells = experiment: as above; details: 50 nM siRNA, DharmaFECT, 96 hours, vs control siRNA
Experimental: as §3

[3] = test system: SK-OV-3 ovarian tumor cells; experiment: as above; details: 50 nM siRNA, DharmaFECT, 96 hours, vs control siRNA
Experimental: as §3

[4] = test system: OV-90 ovarian tumor cells; experiment: as above; details: 50 nM siRNA, DharmaFECT, 96 hours, vs control siRNA
Experimental: as §3

[5] = test system: UWB1.289 ovarian tumor cells; experiment: as above; details: 50 nM siRNA, DharmaFECT, 96 hours, vs control siRNA
Experimental: as §3

[6] = test system: OVCAR3 ovarian tumor cells; experiment: as above; details: 50 nM siRNA, DharmaFECT, 96 hours, vs control siRNA
Experimental: as §3

[7] = test system: Caov-3 ovarian tumor cells; experiment: as above; details: 50 nM siRNA, DharmaFECT, 96 hours, vs control siRNA
Experimental: as §3

[8] = test system: TOV-112D ovarian tumor cells; experiment: as above; details: 50 nM siRNA, DharmaFECT, 96 hours, vs control siRNA
Experimental: as §3

Row | Substance | Response to siRNA (% growth inhibition) (MCF-7 breast tumor cells) [%] | IC50 (ES-2 cells) [nM] | IC50 (TOV-112D cells) [nM] | Response to siRNA (% growth inhibition) (Hs832.Tc cells) [%] | Response to siRNA (% growth inhibition) [1] [%] | Response to siRNA (% growth inhibition) (PC3 prostate tumor cells) [%] | Response to siRNA (% growth inhibition) [2] [%] | Response to siRNA (% growth inhibition) (ES-2 ovarian tumor cells) [%] | Response to siRNA (% growth inhibition) (PA-1 ovarian tumor cells) [%] | Response to siRNA (% growth inhibition) [3] [%] | Response to siRNA (% growth inhibition) [4] [%] | Response to siRNA (% growth inhibition) [5] [%] | Response to siRNA (% growth inhibition) [6] [%] | Response to siRNA (% growth inhibition) [7] [%] | Response to siRNA (% growth inhibition) [8] [%]
1 | siEVI1-2910: siRNA duplex; sense 5′-ggaauguggaggagagaauuu-3′ SEQ ID NO: 13, antisense SEQ ID NO: 14 (sense GGAAUGUGGAGGAGAGAAUUU; antisense AUUCUCUCCUCCACAUUCCUU; listed as RNA, chemistry not given here) | 67 | ~0.5 | ~0.8 | 0 | 46 | 53 | 21 | 92 | 0 | 12 | 23 | 67 | 73 | 47 | 85
2 | siEVI1-256: siRNA duplex; sense 5′-ccagauaaaugaucagauauu-3′ SEQ ID NO: 7, antisense SEQ ID NO: 8 (sense CCAGAUAAAUGAUCAGAUAUU; antisense UAUCUGAUCAUUUAUCUGGUU; listed as RNA, chemistry not given here) | 32 | – | – | 0 | 4 | 23 | 31 | 0 | 0 | 12 | 26 | 43 | 0 | 13 | 36
3 | siEVI1-2994: siRNA duplex; sense 5′-augaagaaguugaagaugauu-3′ SEQ ID NO: 15, antisense SEQ ID NO: 16 (sense AUGAAGAAGUUGAAGAUGAUU; antisense UCAUCUUCAACUUCUUCAUUU; listed as RNA, chemistry not given here) | 57 | – | – | 0 | 12 | 25 | 21 | 54 | 18 | 0 | 33 | 0 | 0 | 28 | 70
4 | siEVI1-992: siRNA duplex; sense 5′-ggacaaauguucagcacuauu-3′ SEQ ID NO: 11, antisense SEQ ID NO: 12 (sense GGACAAAUGUUCAGCACUAUU; antisense UAGUGCUGAACAUUUGUCCUU; listed as RNA, chemistry not given here) | 0 | – | – | 10 | 12 | 35 | 23 | 54 | 0 | 31 | 25 | 73 | 0 | 46 | 70
5 | siEVI1-979: siRNA duplex; sense 5′-gugcaaagacuguggacaauu-3′ SEQ ID NO: 9, antisense SEQ ID NO: 10 (sense GUGCAAAGACUGUGGACAAUU; antisense UUGUCCACAGUCUUUGCACUU; listed as RNA, chemistry not given here) | 0 | ~2.5 | ~4 | 0 | 12 | 8 | 14 | 63 | 0 | 42 | 16 | 14 | 60 | 34 | 79
